Data as given in patent publication EP3568131B1, “COMPOSITION COMPRISING 7-HYDROXYMATAIRESINOL FOR USE IN THE TREATMENT AND IN THE PREVENTION OF TRICHOLOGICAL DISEASES OF INFLAMMATORY AND/OR HORMONAL ORIGIN” (Sinerga Group S.r.l., priority 2017, dated 2018).
Read-outs that look alike come from different tables or passages of the source.

Columns and labels:
[1] = tested on: human hair dermal papilla cells (HHDPC); assay: MTT cell viability test after cell cycle synchronization (cell proliferation); format: cell-based; conditions: for viability at 200 µg/mL / viability at 1000 µg/mL: Homo sapiens, HHDPC, vs negative control; for viability at 200 µg/mL: 0.2 mg/ml of 5% glycerine solution; for viability at 1000 µg/mL: 1 mg/ml of 5% glycerine solution
Source text: (§1) The purpose of the test is quantitatively establishing the effects of 7-hydroxymatairesinol (HMR) on cell proliferation and on the synthesis of total proteins in human fibroblasts of the dermal papilla through the cell viability test (MTT test) after cycle synchronization, and establishing the protein dosage at different exposure times and at different sub-toxic sample dilutions.
(§2) Dermal papilla cells derived from human hair follicle (HHDPC: human hair dermal papilla cells) with fibroblastic morphology. The cells are cultured in DMEM containing 10% FBS and antibiotics.
(§3) The cells were seeded in 24-well plates and left to grow for 24h at 37°C and 5% CO2. Then they were deprived of the serum 6 hours before the experiment for cell cycle synchronization.
(§4) After 6 hours, fresh culture medium was added without serum but containing the sample to be tested in order to reach different final dilutions. The 5% glycerine-solubilized sample was dissolved in the culture medium. The test was carried out in triplicate.
(§5) After 24 and 48 hours of exposure, the MTT cell viability test and the total protein test using the Bradford method^1 were carried out on separate plates. Untreated cells were used as a negative control (CN), while cells treated with human insulin were used as a positive control (CP).
This method was originally developed by Mossman^2. After 24 and 48 hours of treatment, cell viability was evaluated by incubating the cells with MTT (3-[4,5-dimethylthiazol-2-yl]-2,5-diphenyl tetrazolium bromide) for 2 hours.
The precipitated formazan crystals were then extracted using isopropanol or DMSO and were spectrophotometrically quantified at 570 nm against 650 nm. The absorbance was read with a colorimeter (Tecan, model Sunrise remote) equipped with a plate reader subtracting the reading of the bottom.
The cell viability was expressed as a percentage according to the formula: % of cell viability = [OD(570nm−650nm)testedproduct/OD(570nm−650nm)CN] × 100 [formula] OD: Optical density

[2] = MTT cytotoxicity test on reconstituted 3D epidermis; format: cell-based; conditions: human
Experimental: • Cytotoxicity through the MTT test at the end of incubation: cell survival test with 3D human epidermis reconstituted in vitro for the evaluation of the cytotoxic potential caused by the sample. • Inhibition of the release of cellular mediators of inflammation (IL-1α) after stress induced with SLS.
(§6) The cell model used for in vitro tests is represented by a three-dimensional system of reconstituted human epidermis in vitro.
(§7) This three-dimensional cellular model is made up of normal human primary keratinocytes, left to grow in vitro in order to simulate the multi-layered architecture of the human epidermis, with a well-differentiated stratum corneum. The model was purchased from CELLSYSTEMS (Troisdorf, batch 100-AE1818-1).
(§8) The skin irritation characterized by the release of IL-1α was caused by an epidermis pre-treatment for 60 minutes with SLS 0.25%.
(§9) Subsequently, 30µl of diluted sample were placed on two units and the exposure was extended for 24 hours at 37°C, 5% CO2. The sample was diluted to 0.25% in phosphate buffer.
(§10) As a negative control, two units of epidermis were treated with phosphate buffer (PBS), as a positive control two units were treated for 60' with 0.25% SLS. The test was carried out in duplicate.
At the end of the exposure, the sample and the references were removed by washing with phosphate buffer (PBS) and the cell viability was assessed.
The epidermis was incubated for 3h at 37°C with a lmg/ml solution of MTT (3- [4,5-dimethylthiazol-2-yl] -2,5-diphenyl tetrazolium bromide).
Then the solution was removed and replaced with isopropanol with subsequent 2 h incubation at room temperature.
Two aliquots of each sample were transferred to a 96-well plate for reading the absorbance, which was carried out at the wavelength of 570 nm, with a colorimeter (Tecan, model Sunrise remote) equipped with a plate reader.
The result was expressed as a cellular viability in percent according to the formula: % cell viability = [OD (570 nm) tested sample/OD (570 nm) CN] x 100

IL-1α = IL-1α release (ELISA) after SLS-induced stress on reconstituted epidermis; format: cell-based, human; conditions: for IL-1α % inhibition: vs positive control
Source text: The study concerns the in vitro evaluation of the anti-inflammatory potential of 7-hydroxymatairesinol against the inflammatory reaction induced by moderate irritants such as sodium lauryl sulphate (SLS), using a model of human skin cells grown in vitro in multilayer.
The inhibition of the cytokine IL-1α release caused by SLS is investigated by specific ELISA tests in the presence of the tested substance compared to untreated skin samples.
as §6, §7, §8, §9, §10
For the analysis of IL-1α, samples of culture medium were taken at 6 and 24 hours. The maintenance medium of the units treated with PBS and the medium of two non-irritated skin units treated only with the sample were taken as negative control, whereas the culture medium of two skin units treated with the 0.25% SLS solution was used as a positive control.
In this study, IL-1α was dosed using the direct-type ELISA (Enzyme-linked immunosorbent assay) method, i.e. the colour development was directly proportional to the amount of cytokines in the culture medium.
The reading was carried out at 450 nm. The sensitivity limit of this test was less than 10 pg/ml.
The IL-1α concentration was determined using a standard curve as a reference. The inhibition of IL1-α release was determined as: % IL-1α inhibition: 100- (pg/ml IL-1α released from the irritated sample/pg/ml IL-1α positive control)* 100

5α-reductase = assay: Gene expression of 5α-reductase by qRT-PCR in testosterone-treated dermal papilla cells; format: cell-based; conditions: Homo sapiens, HHDPC, 48 h
Source text: Measurement of the gene expression level of 5α-reductase by means of Real Time Polymerase Chain Reaction (qRT-PCR) in human cells of the dermal papilla with and without treatment with the sample. The purpose of the test is to highlight and quantify changes in gene expression of 5α-reductase levels in cell cultures exposed to treatment with the tested substance compared to controls of the same untreated cells. This enzyme is expressed in skin melanocytes, fibroblasts and keratinocytes and turns testosterone into di-hydro-testosterone, a key metabolite implicated in various skin disorders such as acne vulgaris, hirsutism, seborrhoea and androgenetic alopecia. After birth, the 5α-reductase enzyme (type 1) is expressed in multiple body areas, including liver, skin, scalp and prostate. 5α-reductase (type 2) is expressed in prostate, seminal vesicles, epididymis, liver, and, to a lesser extent, scalp and skin. In this test, the cells are previously treated with testosterone to induce 5α-reductase production and are exposed to various test substances for 48 hours. A titrated extract of Serenoa repens, a known pharmacologically active compound used to treat benign prostatic hyperplasia, is used as a positive control. The analysis is carried out through RT-qPCR (Real Time Quantitative Polymerase Chain Reaction), a very sensitive method for the detection and quantification of messenger RNA coding for the protein in analysis and therefore for the corresponding gene activation. RT-qPCR measures the fluorescence emitted by the amplicons produced during each PCR cycle. A culture of human dermal papilla (HHDPC) cells was used. The cells were grown in MEM containing 10% FBS and antibiotics. The cells were seeded in 12-well plates for 24 hours. Then they were treated for 24 hours with 10 ng/ml of testosterone. After this step, fresh culture medium containing the sample to be tested was added. The sample was dissolved directly in the culture medium. The concentrations of the sample to be tested were selected based on preliminary cytotoxicity. […] After precipitation and centrifugation (30' at 12,000 rpm at 4°C), the RNA was resuspended in 20 µl of sterile water and its concentration was determined by spectrophotometry. […] Changes in the gene expression profile are analysed by RT-qPCR using Syber Green as a fluorescent molecule. […] The detection of the fluorescence emitted in each cycle allows monitoring the PCR reaction during the exponential phase, namely where the first significant increases in the PCR product are related to the initial amount of template. […] Subsequently, data can be expressed as "fold change", namely as a ratio with respect to control (a) or as a percentage with respect to control (b). […]

[3] = tested on: human fibroblasts of the dermal papilla (HHDPC); assay: Total protein dosage (Bradford method); format: cell-based; conditions: for activation at 1000 µg/mL: 1 mg/ml of 5% glycerine solution
Source text: as §1, §2, §3, §4, §5
The protein dosage was carried out according to the Bradford method. At the end of the treatment, the cells were washed with sterile PBS and lysed by treatment with purified water at 4°C. The colouring reagent was added to the lysate. A standard curve of albumin titrated to 20, 40, 80 and 100 µg/ml was prepared in a similar manner.
Then 200 µl of each sample, controls and standards, each in triplicate, were transferred to a 96-well plate. The reading was carried out with a colorimeter (Tecan, Sunrise) equipped with a plate reader, at 595 nm.
To quantify proteins, a standard albumin calibration curve was drawn and sample concentrations were calculated using the interpolation curve formula and relative absorbances. The averages of the individual data were then calculated, and for each sample the percentage of increase in protein synthesis was calculated, with respect to the negative control: % protein synthesis increment = (μg/mlsampleprotein/μg/mlCN)∗100 [formula]

[4] = increase on fibroblasts of human dermal papilla compared to untreated cells
[5] = 6 h, sample 0.25% after SLS 0.25% pre-treatment
[6] = 24 h, sample 0.25% after SLS 0.25% pre-treatment

COc1cc(C[C@H]2C(=O)OC[C@@H]2[C@H](O)c2ccc(O)c(OC)c2)ccc1O [HMR, 7-hydroxymatairesinol]
viability at 200 µg/mL ([1]; 24 h): 110%
viability at 1000 µg/mL ([1]; 24 h): 99.7%
viability at 200 µg/mL ([1]; 48 h): 119%
viability at 1000 µg/mL ([1]; 48 h): 105%
cell proliferation [1, 4]: 19%
viability at 24 h ([2]; sample 0.25% in phosphate buffer alone, 24 hours exposure, read-out: % average cell viability (ds)): 78.2%
viability at 24 h ([2]; sample 0.25%, 24 hours, after 60 minutes pre-treatment with SLS 0.25%, read-out: % average cell viability (ds)): 55.9%
IL-1α Mean (IL-1α; [5]): 19.72 pg/mL
IL-1α % inhibition (IL-1α; [5]): 13.94%
IL-1α Mean (IL-1α; 6 h, sample 0.25% alone, non-irritated epidermis): 18.07 pg/mL
IL-1α Mean (IL-1α; [6]): 97.70 pg/mL
IL-1α % inhibition (IL-1α; [6]): 51.32%
IL-1α Mean (IL-1α; 24 h, sample 0.25% alone, non-irritated epidermis): 26.40 pg/mL
mrna remaining at 0.01 % (5α-reductase; 0.2 mg/ml of solution (stated as 0.01% HMR), vs untreated control, read-out: % 5a-reductase (ds) expression): 90.9%
inhibition at 0.01 % (5α-reductase; 0.2 mg/ml of solution (stated as 0.01% HMR), vs untreated control, read-out: % reduction): 9.07%
inhibition at 0.05 % (5α-reductase; 1 mg/ml of solution (stated as 0.05% HMR), 5α-reductase mRNA vs untreated control, read-out: % reduction): 57.1%
mrna remaining at 0.05 % (5α-reductase; 1 mg/ml of solution (stated as 0.05% HMR), vs untreated control, read-out: % 5a-reductase (ds) expression): 42.9%
activation at 200 µg/mL ([3]; Homo sapiens, Fibroblast, HHDPC, 24 h, 0.2 mg/ml of 5% glycerine solution, increase vs negative control, read-out: % protein synthesis): 10.4%
activation at 1000 µg/mL ([3]; Homo sapiens, Fibroblast, HHDPC, 24 h, increase vs negative control, read-out: % protein synthesis): 24.5%
activation at 1000 µg/mL ([3]; Homo sapiens, Fibroblast, HHDPC, 48 h, increase vs negative control, read-out: % protein synthesis): 16.8%
protein synthesis [3, 4]: 24%

CCCCCCCCCCCCOS(=O)(=O)[O-].[Na+] [SLS, sodium lauryl sulphate, reference compound]
viability at 1 h ([2]; SLS 0.25% for 60 minutes, positive control, read-out: % average cell viability (ds)): 50%
viability ([2]; positive control (SLS 0.25%), test acceptability table): 50%
IL-1α Mean (IL-1α; 6 h, SLS 0.25% for 60 minutes, positive control): 22.92 pg/mL
IL-1α Mean (IL-1α; 24 h, SLS 0.25% for 60 minutes, positive control): 200.72 pg/mL
